Patent US20160362418A1, “CARBOXAMIDE-SUBSTITUTED XANTHENE DYES” (priority 2015, published 2016)

Experiment: Spectral properties of fluorescent dyes (Abs/Em)
Assay type: physicochemical
Settings: for Abs: absorbance maximum, first number of Abs/Em; for Em: emission maximum, second number of Abs/Em
From the text: The spectral properties of dyes can be tuned by modifying the rhodamine core of dyes.

| Compound | Abs [nm] | Em [nm] |
| --- | --- | --- |
| CC(=O)O.CN(CCS(=O)(=O)O)C(=O)c1ccccc1-c1c2ccc(=N)cc-2oc2cc(N)ccc12 [Compound 1] | 518 | 539 |
| CC(=O)O.CN(CCS(=O)(=O)[O-])C(=O)c1ccccc1C1=c2cc3c(cc2Oc2cc4c(cc21)C(CS(=O)(=O)O)=CC(C)(C)N4C)=[N+](C)C(C)(C)C=C3CS(=O)(=O)O [Compound 6] | 601 | 623 |
